According to article PMC5325569, “A new synthetic matrix metalloproteinase inhibitor reduces human mesenchymal stem cell adipogenesis” (PLoS ONE, 2017):

How the values were obtained:
MMP-14 = target: T1, MMP-14 (Homo sapiens, UniProt P50281); assay: Fluorogenic substrate enzyme inhibition assay, MMP-14; format: biochemical; details: 25°C, HEPES pH 7.5, 5 μM TCEP, fluorogenic substrate 1 μM
T1 construct: gift of Dr. Harald Tscheche (Bielefeld University, Bielefeld, Germany)
Description: (§1) Enzymatic assays to characterize inhibitor potency were performed as previously described. Assays were performed at 25°C in 50 mM 4-(2-hydroxyethyl)-1-piperazineethanesulfonic acid (HEPES) buffer at pH 7.5 with 10 mM CaCl2, 200 mM NaCl, 0.01% (w/v) Brij-35, and 5 μM tris(2-carboxyethyl)[…] (TCEP). The fluorogenic substrate Mca-PLGLDpa-AR-NH2 (M-1895, Bachem, Torrance, CA) was used at a concentration of 1 μM as the substrate to measure inhibition constants. Briefly, 10 μL of inhibitor solution or control (100% DMSO), 176 μL of assay buffer, and 10 μL of enzyme solution were mixed and incubated for 30 min prior to initiation of the assay, which was accomplished by adding 4 μL of substrate solution, 5% final concentration DMSO. The release of product was monitored by fluorescence (λex = 328 nm, λem = 393 nm) with a PerkinElmer luminescence spectrophotometer LS50B (FL WinLab v3.0) connected to a temperature-controlled water bath. Inhibitor potency was determined via comparison of relative rates (vi/vo).

hMSCs [1] = assay: Adipogenic differentiation, lipid accumulation, co-treatment with T0070907; format: cell-based, human; details: 10 μM compound with 10 μM T0070907
Description: (§2) Human MSCs were seeded into 6-well plates at 1,000 cells/cm^2. Upon reaching 70–80% confluence hMSCs were induced towards an adipogenic lineage by adding dexamethasone (0.5 μM), 3-isobutyl-1-methylxanthine ([…]), and indomethacin (50 μM) to the culture medium. Tested compounds were dissolved in DMSO and added to treatment wells during differentiation to a final total concentration of 10 μM with DMSO concentrations remaining constant (0.125% or 0.25% v/v) between conditions. Wells treated with appropriate concentrations of DMSO alone served as controls. Media and treatments were refreshed every 72 h for 21 days.
(§3) After 21 days of differentiation, hMSCs were washed with PBS and fixed with neutral buffered formalin for 1 h. Cells were then stained with 0.3% (w/v) Oil Red-O in 3:2 100% isopropyl alcohol to PBS for 20 min, washed with PBS, stained with 5 μg/mL Hoechst 33342 for 5 min, then washed again. Cultures were later imaged with an epifluorescence capable Nikon TE2000-E2 Eclipse microscope. Relative staining was determined with ImageJ (version 1.46c, National Institutes of Health, Bethesda, MD) by standardizing the area stained in each image to nuclei number prior to normalizing against DMSO treated controls.

MMP-7 = target: T2, MMP-7 (Homo sapiens, UniProt P09237); assay: Fluorogenic substrate enzyme inhibition assay, MMP-7; format: biochemical; details: 25°C, HEPES pH 7.5, 5 μM TCEP, fluorogenic substrate 1 μM
T2 construct: gift of Dr. Harold E. Van Wart (Syntex, Palo Alto, CA)
T2 sequence (P09237 95-267): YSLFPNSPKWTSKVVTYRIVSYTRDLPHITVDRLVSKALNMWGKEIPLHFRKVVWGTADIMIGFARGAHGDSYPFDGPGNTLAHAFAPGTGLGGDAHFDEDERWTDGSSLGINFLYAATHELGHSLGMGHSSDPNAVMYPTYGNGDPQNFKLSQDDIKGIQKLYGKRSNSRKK
Description: as §1

hMSCs [2] = assay: Adipogenic differentiation, lipid accumulation by Oil Red-O staining; format: cell-based, human; details: 10 μM, 21 days differentiation, vs DMSO control
Description: as §2, §3

CNC(=O)[C@H](Cc1c[nH]c2ccccc12)NC(=O)[C@@H](CC(=O)NO)CC(C)C [GM6001, reference compound]
IC50 (MMP-14): 0.5 ± 0.1 nM
Further reduction of lipid accumulation on co-treatment with T0070907 (hMSCs [1]): ~ 20%
IC50 (MMP-7): 2 ± 1.9 nM
Reduction of lipid accumulation (hMSCs [2]): ~20%

Cc1c(C)c2c(c(C)c1O)CCC(C)(COc1ccc(CC3SC(=O)NC3=O)cc1)O2 (centres unmarked) [Troglitazone]
Increase of lipid accumulation (hMSCs [2]): approximately 80%
